In patent US8394401B2, “Antiobesity or antihyperlipidemic food, feeding stuff or supplement containing lysine” (Ajinomoto Co., Inc., priority 2004, dated 2013):

Tests used:
Type in all cases: in vivo, C57BL/6J male mice
[1] = Experimental Example 1: high fat diet-induced obese mice fed a 20% protein energy diet supplemented with lysine hydrochloride for 8 weeks
Description: A high fat diet (dietary energy composition ratio was protein:fat:carbohydrate=17:46:37) was provided for 16 weeks to 30 5-week-old C57BL/6J male mice. At the 16th week, the 30 mice were divided into 3 groups, each consisting of 10 individuals (n=10), and from then, the following diets were provided for 8 weeks to the 3 groups, respectively, (1) 20% protein energy diet (LF; protein:fat:carbohydrate=2:7:1), (2) 20% protein energy diet supplemented with 1% lysine hydrochloride (LF1K; containing 1% lysine hydrochloride (0.8% lysine base)), and (3) 20% protein energy diet supplemented with 3% lysine hydrochloride (LF3K; containing 3% lysine hydrochloride (2.4% lysine base)). Herein, the term “lysine base” refers to free-form lysine. Further, as a nonobese group, a group (LL) was prepared consisting of 10 mice of the same species that were fed with 20% protein energy diet (protein:fat:carbohydrate=2:7:1) from the start of the experiment until the end, i.e., for 24 weeks.
The food intakes were measured and the energy intakes were determined from the energy per g of each test diet. After 8 weeks of the experimental period, the body weight and the total fat weight (sum of epididymal fat, perirenal fat, mesenteric fat, and subcutaneous fat in the periphery of the femoral region) were measured. Statistical analysis was performed using Dunnett's test employing the LF group as the control.

[2] = Experimental Example 2: mice fed 10/20/40/60% protein energy diets with or without 3% lysine hydrochloride for 4 weeks; conditions: after 4 weeks, vs respective diet without lysine supplementation
Description: The following feeding stuffs were respectively provided for 4 weeks to 8 groups of 9-week-old C57BL/6J male mice, consisting of 10 individuals per group (n=10): (1) 10% protein energy diet (LP; dietary energy composition ratio was protein:fat:carbohydrate=1:1:8), (2) 10% protein energy diet supplemented with lysine hydrochloride (LPK), (3) 20% protein energy diet (LF; protein:fat:carbohydrate=2:1:7), (4) 20% protein energy diet supplemented with lysine hydrochloride (LFK), (5) 40% protein energy diet (MP; protein:fat:carbohydrate =4:1:5), (6) 40% protein energy diet supplemented with lysine hydrochloride (MPK), (7) 60% protein energy diet (HP; protein:fat:carbohydrate=6:1:3), and (8) 60% protein energy diet supplemented with lysine hydrochloride (HPK). The diets, when supplemented with lysine hydrochloride, were added with 3% lysine hydrochloride.
After 4 weeks the experimental period, the body weight, the total fat weight(sum of epididymal fat, perirenal fat, mesenteric fat, and subcutaneous fat in the periphery of the femoral region), and the kidney weight were measured. Statistical analysis was performed using Dunnett's test, employing the respective groups fed with the diets without lysine supplementation as the controls.

[3] = Experimental Example 3: mice fed high fat feed supplemented with lysine hydrochloride, triglyceride concentration in blood plasma
Description: The following diets were respectively provided for 8 weeks to 4 groups of 9-week-old C57BL/6J male mice, consisting of 10 individuals per group (n=10): (1) 20% protein energy diet (LF; dietary energy composition ratio was protein:fat:carbohydrate=2:7:1), (2) high fat feed (HF; protein:fat:carbohydrate=17:46:37), (3) high fat food supplemented with 1% lysine hydrochloride (HF1K; containing 1% lysine hydrochloride (0.8% lysine base)), and (4) high fat feed supplemented with 3% lysine hydrochloride (HF3K; containing 3% lysine hydrochloride (2.4% lysine base)).
After 8 weeks of the experimental period, the triglyceride concentration in the blood plasma was measured. Statistical analysis was performed using Dunnett's test employing the HF group as the control.

[4] = after 8 weeks, 1% or 3% lysine hydrochloride in 20% protein energy diet, vs LF group, Dunnett's test p<0.05, dose-dependent
[5] = mice, feeding stuff having 20% protein energy, lysine component(s) 0.8 to 3.0 wt % on the dry matter basis

Cl.NCCCC[C@H](N)C(=O)O [lysine hydrochloride, L-Lysine hydrochloride]
body weight upon the autopsy [1, 4]: significant decrease
total fat weight (sum of epididymal, perirenal, mesenteric and femoral subcutaneous fat) [1, 4]: significant decrease
increase in body fat [1, 5]: suppressed
increase in body weight [1, 5]: suppressed
total fat weight [2]: decrease
body weight ([2]; Dunnett's test p<0.05): decrease
increase in the triglyceride concentration in the blood plasma due to intake of the high fat diet ([3]; after 8 weeks, 1% or 3% lysine hydrochloride in high fat feed, vs HF group, Dunnett's test p<0.05): significantly inhibited
improvement effect for hyperlipidemia ([3]; mice, lysine component(s) 0.8 to 3.0 wt % on the dry matter basis): improvement effect for hyperlipidemia was exhibited
